Earlier results as cited in patent US20040213859A1, “Organic nutrient for hair loss treatment” (priority 1999, published 2004).

How the values were obtained:
[1] = target: T1, type II 5-alpha-reductase (Homo sapiens, UniProt P31213); conditions: by inhibiting conversion of testosterone to DHT
T1 construct: host or cells: scalp (in vivo, treated individuals)
T1 sequence (P31213 1-254): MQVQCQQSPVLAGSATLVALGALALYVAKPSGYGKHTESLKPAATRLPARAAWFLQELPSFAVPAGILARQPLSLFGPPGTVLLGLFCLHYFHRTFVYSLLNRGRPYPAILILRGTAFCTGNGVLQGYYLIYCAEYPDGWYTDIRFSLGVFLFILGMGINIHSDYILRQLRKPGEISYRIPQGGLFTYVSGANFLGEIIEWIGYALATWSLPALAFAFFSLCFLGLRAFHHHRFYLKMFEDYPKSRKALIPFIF

[2] = test system: adrogenetic alopecia; conditions: oral administration

scalp DHT (dihydrotestosterone) [1]: effective in decreasing scalp DHT
Structure (SMILES): CC(C)(C)NC(=O)[C@H]1CC[C@H]2[C@@H]3CC[C@H]4NC(=O)C=C[C@]4(C)[C@H]3CC[C@]12C [Finisteride]
hair loss, hair growth and appearance of hair [2]: slowed hair loss, increased hair growth and improved the appearance of hair
